{"source": "patent US11185557B2", "about": "“Use of rhamnose and derivatives thereof as antifungal agents” (ISDIN, S.A., priority 2017, dated 2021)", "test_system": "Malassezia furfur", "assay": "Ex-vivo antifungal activity assay on inoculated human skin explants, product applied 24 hours after inoculation, CFU quantification", "type": "cell-based", "conditions": "topical 2 mg/cm^2 applied 24 hours post inoculation, versus inoculum (C1) and untreated control explants (C2), FIG. 2", "method": "Human organotypic skin cultures were obtained from abdominal skin removed during aesthetic surgery. These skin explants were altered by partial elimination of stratum corneum to facilitate the colonization and MF suspension was placed on the skin surface and incubated for 24 hours under conditions that are optimal for MF growth. 24 hours post initial MF inoculation, NSFC was topically applied on skin explants (2 mg/cm^2) and spread evenly. On control skin explants, inoculated in the same way, no product was applied (C2). A sham control group was treated with a neutral cream without known antifungal properties, petroleum jelly (P3). Growth of MF was monitored by quantifying MF Colony Forming Units (CFUs) in a sample removed from skin surface. The quantification of CFUs was carried out by recovering fungal microorganisms from skin explants and subsequent plating them following the serial dilution method to determine the number of CFUs.\nThe antifungal activity was evaluated for Ketoconazole 2% (P1), the composition of example 1 (P2), and petroleum jelly (Vaseline) (P3) with respect to the inoculum concentration (C1) and control skin explants (C2)."}
{"smiles": "CC(=O)N1CCN(c2ccc(OCC3COC(Cn4ccnc4)(c4ccc(Cl)cc4Cl)O3)cc2)CC1", "note": "(stereo not shown) [Ketoconazol 2%, ketoconazole]", "values": [{"measurement": "growth of M. furfur on the skin explants (CFUs)", "result": "reduced the growth of the fungus"}]}
